These results are taken from patent publication US20230364079A1, “COMPOUND AS BRAIN-PERMEABLE BTK OR HER2 INHIBITOR, PREPARATION METHOD THEREFOR, AND USE THEREOF” (CHENGDU HYPERWAY PHARMACEUTICALS CO., LTD., priority 2020, published 2023).

The target in this assay is BTK wild-type kinase (Homo sapiens (Human), UniProt Q06187). The assay is described as follows: BTK kinase activity inhibition test in vitro (Caliper EZ Reader). In kind it is biochemical. How it is done:
In the tests on the activity of inhibiting BTK and HER2 kinase in vitro in the examples of the present disclosure, powder of the compound was dissolved in 100% DMSO to prepare a 10 mM stock solution and stored at-20° C. in the dark. […] In addition, the compounds were subjected to experiments such as liver microsome metabolic stability, rat PK, rat brain penetration rate, and drug efficacy model in the examples of the present disclosure.
Compound powders were dissolved in 100% DMSO to make 10 mM stock solutions, which were stored at -20° C. in the dark.
2: Kinase Reaction Process
(1) Preparation of 1 × Kinase buffer.
(5) After centrifugation at 1000 rpm for 30 seconds, the reaction plate was shaken to mix well and incubated at room temperature for 10 min.
(6) A 5/3-fold final concentration of a mixed solution of ATP and Kinase substrate 2 was prepared with 1 × Kinase buffer.
(7) 15 µL of the mixed solution of ATP and substrate with 5/3-fold final concentration was added to start the reaction.
(8) The 384-well plate was centrifuged at 1000 rpm for 30 seconds, shaken to mix well, and incubated at room temperature for 10 min.
(9) 30 µL of a stop solution was added to stop the kinase reaction, and after centrifugation at 1000 rpm for 30 seconds, the plate was shaken to mix well;
(10) The conversion rate was read with Caliper EZ Reader.
where Conversion%_sample indicates the conversion rate reading of the sample; Conversion%_min is the average reading of the negative control wells, representing the conversion rate reading of the wells without enzyme activity; Conversion%_max is the average reading of the ratio of the positive control wells, representing the conversion rate reading of the wells without compound inhibition.
Dose-Response Curve Fitting
With the log value of the concentration as the X-axis, and the percentage inhibition rate as the Y-axis, the dose-effect curve was fitted using the log(inhibitor) vs. response-Variable slope of the analysis software GraphPad Prism 5, so as to determine the IC50 value of each compound on the enzyme activity.
The calculation formula was: […]

Chain of BTK wild-type kinase (Q06187 whole entry): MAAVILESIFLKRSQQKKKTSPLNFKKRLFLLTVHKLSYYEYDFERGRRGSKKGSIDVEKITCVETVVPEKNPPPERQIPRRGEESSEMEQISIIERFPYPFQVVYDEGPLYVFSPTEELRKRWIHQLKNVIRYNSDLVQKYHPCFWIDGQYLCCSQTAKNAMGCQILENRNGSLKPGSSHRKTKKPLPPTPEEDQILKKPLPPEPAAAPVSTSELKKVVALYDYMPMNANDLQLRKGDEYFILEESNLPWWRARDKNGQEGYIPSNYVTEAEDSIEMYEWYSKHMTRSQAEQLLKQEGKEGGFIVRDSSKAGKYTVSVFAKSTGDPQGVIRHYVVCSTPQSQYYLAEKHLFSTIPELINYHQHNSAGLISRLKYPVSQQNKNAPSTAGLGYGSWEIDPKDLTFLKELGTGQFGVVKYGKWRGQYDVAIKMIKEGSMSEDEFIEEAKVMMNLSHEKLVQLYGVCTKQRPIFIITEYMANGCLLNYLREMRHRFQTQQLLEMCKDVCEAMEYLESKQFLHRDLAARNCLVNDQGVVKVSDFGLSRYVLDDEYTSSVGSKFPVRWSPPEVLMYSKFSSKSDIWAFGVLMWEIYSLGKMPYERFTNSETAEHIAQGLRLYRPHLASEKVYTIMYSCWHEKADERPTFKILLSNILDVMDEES

Consider `COc1cccc(Oc2ccc(-c3nc(C4CCC(CO)OC4)n4ccnc(N)c34)cc2)c1C#N` (single isomer, unassigned) [Compound 89-P2], for which the IC50 – broadly, the point on the concentration scale where inhibition reaches its midpoint – is less than 0.005 µM.
`Nc1nccn2c(C3CCC(CO)OC3)nc(-c3ccc(C(=O)Nc4cc(C(F)(F)F)ccn4)cc3)c12` (single isomer, unassigned) [Compound 109-P2] returned an IC50 of less than 0.005 µM.
In turn, `Nc1nccn2c(C3CC[C@H](CO)OC3)nc(-c3ccc(C(=O)Nc4ccccn4)cc3F)c12` (stereo partly drawn) [Compound 1-A] displayed an IC50 of 0.005 to 0.02 µM.
`Nc1ncc(Cl)n2c(C3CCC(CO)OC3)nc(-c3ccc(C(=O)Nc4ccccn4)cc3)c12` (stereo not drawn) [Compound 3] showed an IC50 of 0.02 to 0.1 µM.
As for `Nc1ncc(Cl)n2c(C3CCC(CO)OC3)nc(-c3ccc(C(=O)Nc4ccccn4)cc3F)c12` (stereo not drawn) [Compound 4], the IC50 was in the range of 0.02 to 0.1 µM.
`COc1cccc(Oc2ccc(-c3nc(C4CCC(CO)OC4)n4ccnc(N)c34)c(F)c2)c1F` (stereo not drawn) [Compound 10]: the IC50 is less than 0.005 µM.
To `Nc1nccn2c(C3CCC(CO)OC3)nc(-c3ccc(Oc4cccc(OC5CC5)c4F)cc3)c12` (stereo not drawn) [Compound 15] belongs 0.005 to 0.02 µM; to `Nc1nccn2c(C3CCC(CO)OC3)nc(-c3ccc(Oc4c(F)c(F)cc(F)c4F)cc3F)c12` (stereo not drawn) [Compound 18], 0.02 to 0.1 µM; to `COc1c(F)ccc(Oc2ccc(-c3nc(C4CCC(CO)OC4)n4ccnc(N)c34)cc2)c1F` (stereo not drawn) [Compound 20], 0.005 to 0.02 µM.
In turn, `COc1cc(Oc2ccc(-c3nc(C4CCC(CO)OC4)n4ccnc(N)c34)cc2)ccc1F` (stereo not drawn) [Compound 21] displayed an IC50 of 0.02 to 0.1 µM.
With `Nc1nccn2c(C3CCC(CO)OC3)nc(-c3ccc(Oc4cccc(C5CC5)c4F)cc3)c12` (stereo not drawn) [Compound 22], the IC50 fell in the range of 0.02 to 0.1 µM.
`Nc1nccn2c(C3CCC(CO)OC3)nc(-c3ccc(Oc4cccc(OCC5CC5)c4F)cc3)c12` (stereo not drawn) [Compound 23] had an IC50 of 0.1 to 1 µM.
On to `Nc1nccn2c(C3CCC(CO)OC3)nc(-c3ccc(Oc4ccc(C5CC5)cc4F)cc3)c12` (stereo not drawn) [Compound 25], for which the IC50 was in the range of 0.02 to 0.1 µM.
To `CC(O)(c1ccccc1)c1ccc(-c2nc(C3CCC(CO)OC3)n3ccnc(N)c23)cc1` (stereo not drawn) [Compound 27] belongs 0.02 to 0.1 µM.
To `CNC(=O)c1cccc(Oc2ccc(-c3nc(C4CCC(CO)OC4)n4ccnc(N)c34)cc2)c1F` (stereo not drawn) [Compound 28] belongs 0.02 to 0.1 µM; to `COc1cccc(Oc2ccc(-c3nn(C4CCC(CO)OC4)c4ncnc(N)c34)cc2)c1F` (stereo not drawn) [Compound 29], 0.005 to 0.02 µM.
`COc1cccc(Oc2ccc(-c3nn(C4CCC(CO)OC4)c4ccnc(N)c34)cc2)c1F` (stereo not drawn) [Compound 30]: the IC50 lay in the range of 0.005 to 0.02 µM.
Compound `Cc1cc(NC(=O)c2ccc(C3CC3)cc2F)c(F)cc1-c1nc(C2CCC(CO)OC2)n2ccnc(N)c12` (stereo not drawn) [Compound 31] returned an IC50 of more than 1 µM.
Compound `Nc1nccn2c(C3CCC(CO)OC3)nc(-c3ccc(Oc4ccccc4)cc3Cl)c12` (stereo not drawn) [Compound 32] showed an IC50 of 0.005 to 0.02 µM.
To `COc1ccccc1C(=O)NCc1ccc(-c2nc(C3CCC(CO)OC3)n3ccnc(N)c23)cc1` (stereo not drawn) [Compound 33] belongs 0.02 to 0.1 µM.
In turn, `Nc1nccn2c(C34CCC(CO)(CC3)OC4)nc(-c3ccc(C(=O)Nc4ccccn4)cc3F)c12` [Compound 35] returned a half-inhibitory concentration (IC50) of 0.005 to 0.02 µM.
To `Nc1ncc(Cl)n2c(C34CCC(CO)(CC3)OC4)nc(-c3ccc(C(=O)Nc4ccccn4)cc3F)c12` [Compound 36] belongs 0.005 to 0.02 µM.
With `COc1cccc(Oc2ccc(-c3nc(C45CCC(CO)(CC4)OC5)n4ccnc(N)c34)cc2)c1F` [Compound 37], the IC50 is less than 0.005 µM.
Consider `COc1cccc(Oc2ccc(-c3nc(C45CCC(CO)(CC4)OC5)n4ccnc(N)c34)c(F)c2)c1F` [Compound 38], for which the IC50 was in the range of 0.005 to 0.02 µM.
On to `COc1cccc(Oc2ccc(-c3nc(C45CCC(CO)(CC4)OC5)n4c(Cl)cnc(N)c34)cc2)c1F` [Compound 39], for which the IC50 is less than 0.005 µM.
`Nc1nccn2c(C34COC(CO)(C3)C4)nc(-c3ccc(Oc4cccc(OC(F)(F)F)c4F)cc3F)c12` [Compound 40]: the IC50 lay in the range of 0.005 to 0.02 µM.
To `Nc1ncc(Cl)n2c(C34COC(CO)(C3)C4)nc(-c3ccc(Oc4cccc(OC(F)(F)F)c4F)cc3F)c12` [Compound 41] belongs 0.005 to 0.02 µM; to `Nc1nccn2c(C34COC(CO)(C3)C4)nc(-c3ccc(C(=O)Nc4ccccn4)cc3)c12` [Compound 42], 0.02 to 0.1 µM; to `Nc1nccn2c(C34COC(CO)(C3)C4)nc(-c3ccc(C(=O)Nc4ccccn4)cc3F)c12` [Compound 43], 0.02 to 0.1 µM.
For the compound `Nc1ncc(Cl)n2c(C34COC(CO)(C3)C4)nc(-c3ccc(C(=O)Nc4ccccn4)cc3F)c12` [Compound 44], the IC50 lay in the range of 0.02 to 0.1 µM.
`COc1cccc(Oc2ccc(-c3nc(C45COC(CO)(C4)C5)n4ccnc(N)c34)cc2)c1F` [Compound 45] gave an IC50 of 0.005 to 0.02 µM.
Regarding `Nc1nccn2c(C3CCC(CO)OC3)nc(-c3ccc(NC(=O)c4ccc(C5CC5)cc4F)cc3)c12` (stereo not drawn) [Compound 46], the IC50 is 0.1 to 1 µM.
To `CC(N)(c1ccccc1)c1ccc(-c2nc(C3CCC(CO)OC3)n3ccnc(N)c23)cc1` (stereo not drawn) [Compound 47] belongs 0.1 to 1 µM; to `Nc1nccn2c(C3CCC(CO)OC3)nc(-c3ccc(Nc4ccccc4)cc3)c12` (stereo not drawn) [Compound 48], 0.02 to 0.1 µM; to `C[C@](N)(c1ccc(F)cc1)c1cnc(-c2nc(C3CCC(CO)OC3)n3ccnc(N)c23)nc1` (stereo partly drawn) [Compound 49], more than 1 µM.
To `COc1cccc(Oc2ccc(-c3nc(C4CCC(C5(O)CC5)OC4)n4ccnc(N)c34)cc2)c1F` (stereo not drawn) [Compound 50] belongs 0.02 to 0.1 µM; to `COc1cccc(Oc2ccc(-c3nc(C4CCC(C(C)(C)O)OC4)n4ccnc(N)c34)cc2)c1F` (stereo not drawn) [Compound 51], 0.02 to 0.1 µM; to `COc1cccc(Oc2ccc(-c3nn(C4CCC(CO)OC4)c4c(Cl)cnc(N)c34)cc2)c1F` (stereo not drawn) [Compound 52], 0.005 to 0.02 µM.
To `Nc1ncnc2c1c(-c1ccc(Oc3ccccc3)cc1)nn2C1CCC(CO)OC1` (stereo not drawn) [Compound 53] belongs 0.02 to 0.1 µM; to `Nc1ncnc2c1c(-c1ccc(Oc3ccccc3)cc1F)nn2C1CCC(CO)OC1` (stereo not drawn) [Compound 54], 0.02 to 0.1 µM; to `Nc1nccn2c(C3CCC(CO)OC3)nc(-c3ccc(OCc4ccccc4)cc3)c12` (stereo not drawn) [Compound 55], 0.02 to 0.1 µM.
`Nc1nccn2c(C3CCC(CO)OC3)nc(-c3cnc(Nc4cccc(OC(F)(F)F)c4)nc3)c12` (stereo not drawn) [Compound 56] displayed an IC50 of more than 1 µM.
As for `Nc1nccc2c1c(-c1ccc(C(=O)Nc3ccccn3)cc1F)nn2C1CCC(CO)OC1` (stereo not drawn) [Compound 57], the figure is 0.02 to 0.1 µM; as for `COc1cccc(NC(=O)c2ccc(-c3nc(C4CCC(CO)OC4)n4ccnc(N)c34)cc2)n1` (stereo not drawn) [Compound 58], more than 1 µM; as for `Nc1nccn2c(C3CCC(CO)OC3)nc(-c3ccc(Oc4cccnc4F)cc3)c12` (stereo not drawn) [Compound 59], more than 1 µM.
`COc1cccc(C(=O)c2ccc(-c3nc(C4CCC(CO)OC4)n4ccnc(N)c34)cc2)c1F` (stereo not drawn) [Compound 61]: the IC50 lay in the range of 0.005 to 0.02 µM.
For `Nc1nccn2c(C3CCC(CO)OC3)nc(-c3ccc(C(=O)c4ccccc4Cl)cc3)c12` (stereo not drawn) [Compound 62], the IC50 lay in the range of 0.02 to 0.1 µM.
The compound `Nc1nccn2c(C3CCC(CO)OC3)nc(-c3ccc(C(O)c4ccccc4Cl)cc3)c12` (stereo not drawn) [Compound 63] displayed an IC50 of 0.1 to 1 µM.
`Nc1ccccc1C(=O)c1ccc(-c2nc(C3CCC(CO)OC3)n3ccnc(N)c23)cc1` (stereo not drawn) [Compound 65] returned an IC50 of 0.005 to 0.02 µM.
`Nc1nccn2c(C3CCC(CO)OC3)nc(-c3ccc(C(=O)c4ccccc4O)cc3)c12` (stereo not drawn) [Compound 66] gave an IC50 of 0.02 to 0.1 µM.
To `CNc1ccccc1C(=O)c1ccc(-c2nc(C3CCC(CO)OC3)n3ccnc(N)c23)cc1` (stereo not drawn) [Compound 67] belongs 0.1 to 1 µM; to `Nc1nccn2c(C3CCC(CO)OC3)nc(-c3ccc(C(=O)Nc4ccc(Cl)cn4)cc3)c12` (stereo not drawn) [Compound 68], 0.02 to 0.1 µM.
In the case of `Nc1nccn2c(C3CCC(CO)OC3)nc(-c3ccc(C(=O)Nc4ccc(F)cn4)cc3)c12` (stereo not drawn) [Compound 69], the IC50 lay in the range of 0.02 to 0.1 µM.
To `Nc1cccc(NC(=O)c2ccc(-c3nc(C4CCC(CO)OC4)n4ccnc(N)c34)cc2)n1` (stereo not drawn) [Compound 71] belongs 0.02 to 0.1 µM; to `Nc1nccn2c(C3CCC(CO)OC3)nc(-c3ccc(C(=O)Nc4cccc(Br)n4)cc3)c12` (stereo not drawn) [Compound 72], 0.1 to 1 µM.
Consider `Nc1nccn2c(C3CCC(CO)OC3)nc(-c3ccc(C(=O)Nc4ccc(C(F)(F)F)cn4)cc3)c12` (stereo not drawn) [Compound 73], for which the IC50 lay in the range of 0.1 to 1 µM.
For the compound `COCCOc1ccc(-c2nc(C3CCC(CO)OC3)n3ccnc(N)c23)cc1` (stereo not drawn) [Compound 74], the IC50 was more than 1 µM.
`Nc1nccn2c(C3CCC(CO)OC3)nc(-c3ccc(Oc4cccc(OC(F)F)c4F)cc3)c12` (stereo not drawn) [Compound 75] had an IC50 of 0.005 to 0.02 µM.
`COc1c(F)cccc1Oc1ccc(-c2nc(C3CCC(CO)OC3)n3ccnc(N)c23)cc1` (stereo not drawn) [Compound 76] displayed an IC50 of 0.1 to 1 µM.
As for `Cc1ccc(Oc2ccc(-c3nc(C4CCC(CO)OC4)n4ccnc(N)c34)cc2)c(F)c1` (stereo not drawn) [Compound 77], the figure is 0.02 to 0.1 µM.
